According to article PMC7496768, “Understanding Substrate Selectivity of Phoslactomycin Polyketide Synthase by Using Reconstituted in Vitro Systems” (Chembiochem, 2020):

Biological target: T1, Npt (Streptomyces platensis, UniProt A0AAE6NLM9)
T1 construct: recombinant, expressed in E. coli BL21 (DE3), purified
T1 sequence (A0AAE6NLM9 1-219): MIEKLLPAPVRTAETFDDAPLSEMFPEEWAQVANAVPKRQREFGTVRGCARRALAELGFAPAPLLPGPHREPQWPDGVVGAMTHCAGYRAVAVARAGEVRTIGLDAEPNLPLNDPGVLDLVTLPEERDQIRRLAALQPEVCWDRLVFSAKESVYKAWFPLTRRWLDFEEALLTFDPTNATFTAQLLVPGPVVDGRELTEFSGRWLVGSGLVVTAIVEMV
Experiment: phosphopantetheinylation of apo-ACPs
Assay type: biochemical
Conditions: apo-Pn ACPs as acceptor

CC(C)(COP(=O)(O)OP(=O)(O)OC[C@H]1O[C@@H](n2cnc3c(N)ncnc32)[C@H](O)[C@@H]1OP(=O)(O)O)[C@@H](O)C(=O)NCCC(=O)NCCS [CoA-SH]
phosphopantetheinylation of apo-ACPs: Npt serves as a bona fide Ppant transferase that is able to activate apo‐Pn_ACPs
